# Experimental data reported in patent publication US12636250B2, “Microneedle array patches (MAPs), systems, and methods for manufacturing and using same” (Terrestrial Bio, Inc., priority 2024, dated 2026).
# Entries after “also recorded” stand apart in the source; their conditions may differ.
# Columns and labels:
# [1] = Mold dissection for tip length and shell length (RTM-209); assay type: physicochemical; conditions: comparison between GLP-1 tip formulations
# Description: Mold Dissection for Tip Length (RTM-209): The mold dissection method uses magnified images of sectioned molds to obtain measurements and morphology of the dried tips in the molds. After tip printing and drying, a mold is cross-sectioned with a razor blade in between rows of needles. The dried tips are imaged within the needle cavities using a microscope. The tip overall length and shell length are measured by image processing. The image scale is calibrated using a stage micrometer, and lengths in micrometers are calculated from the lengths measured in pixels. The shell length as a portion of overall length is an indication of consolidation. Minimal shell length, corresponding to maximum consolidation, is preferred.
# [2] = Microneedle mechanical strength, Instron compression (crush) test (TM-404); assay type: physicochemical; conditions: for Tip strength (comparison in words): comparison between GLP-1 tip formulations
"strength per needle ([2]; GLP-086, higher (3%) concentration of Proline vs feasibility (control) formulation) [N/needle]",Compound,Tip length / shell length / Tip consolidation (comparison in words) [1],Tip strength (comparison in words) [2]
–,[Cl-].[Cl-].[Mg+2] [MgCl2],also improved Tip consolidation,–
–,[Cl-].[Na+] [NaCl],led to better consolidation of the Tips; also recorded: significantly reduced the shell length and improved the % consolidation of the Tip,comparable
> 0.6,O=C(O)[C@@H]1CCCN1 [Proline],did improve Tip consolidation,significantly improves the mechanical strength of GLP-1 containing needles
–,Cl.NC(CO)(CO)CO [Tris-HCl],comparable to MOPS in terms of Tip length and strength,comparable to MOPS in terms of Tip length and strength
